Values quoted from earlier work as cited in patent US20200188326A1, “COMPOSITIONS AND METHODS OF TREATMENT FOR MVID AND RELATED DISEASES” (Vanessa Research, Inc., priority 2015, published 2020).

System: SLC26A3 exchanger
Settings: in the intestine

## Vitamin A
  upregulation of the expression of SLC26A3 exchanger: up to 4 fold
